Key:
[1] = system: trichoid sensillum housed odor receptor, which is also activated by DEET; details: compared with DEET; cited from earlier work
[2] = in vivo; cited from earlier work
acetylcholoinesterase = acetylcholoinesterase (Homo sapiens, UniProt P22303); details: in humans, recent study; cited from earlier work
Aedes aegypti [3] = details: 25 μmol/cm^2, Katritzky data; cited from earlier work
Aedes aegypti [4] = assay: protection time assay for mosquito repellency; assay type: in vivo; details: standardized to 25 μmol/cm^2; assigned, not measured
Method: In two recent studies, 34 N-acylpiperdine and 38 carboxamide mosquito repellent candidates were synthesized and compared for their effectiveness. […] The mode of repellency for all of these compounds is unknown. As the N-acylpiperdines and some of the carboxamides are larger and likely have a lower vapor pressure than DEET, it is possible that the increased protection times of these compounds is due to a slower evaporation rate.
As these odors were tested using different approaches, a single unit of measure was needed to standardize them for training. Since the largest proportion of odors was measured in protection time, all odors were converted into this single standard of protection time in days to match with the Katritzky data at a concentration of 25 μmol/cm^2. Picaridin, which is believed to have a similar protection to DEET, was given the same protection time as DEET (17.5 days). […] While this is a very rough approximation, it is sufficiently accurate for training.

insects = details: in vivo; cited from earlier work

Sequence of acetylcholoinesterase (P22303 32-614): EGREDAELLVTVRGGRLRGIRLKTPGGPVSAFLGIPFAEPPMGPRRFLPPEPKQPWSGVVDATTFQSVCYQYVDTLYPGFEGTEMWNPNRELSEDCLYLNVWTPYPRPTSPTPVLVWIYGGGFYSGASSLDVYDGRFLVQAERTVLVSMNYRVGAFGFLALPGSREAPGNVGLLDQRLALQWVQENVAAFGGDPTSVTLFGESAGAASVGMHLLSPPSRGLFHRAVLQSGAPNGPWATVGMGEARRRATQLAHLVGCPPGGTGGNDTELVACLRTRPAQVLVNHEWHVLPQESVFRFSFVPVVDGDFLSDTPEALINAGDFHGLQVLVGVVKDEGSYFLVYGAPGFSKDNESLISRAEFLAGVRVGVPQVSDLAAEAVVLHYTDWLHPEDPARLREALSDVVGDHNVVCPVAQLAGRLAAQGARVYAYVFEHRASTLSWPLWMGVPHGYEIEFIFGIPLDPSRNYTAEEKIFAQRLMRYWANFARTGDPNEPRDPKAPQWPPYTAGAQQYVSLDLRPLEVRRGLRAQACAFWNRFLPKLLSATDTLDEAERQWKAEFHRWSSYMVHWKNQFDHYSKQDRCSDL

Row | SMILES | activation of DEET-activated odor receptor / DEET receptive neuron [1] | protection time given for training (same as DEET, very rough approximation) (Aedes aegypti [4]) | other results
1 | CC(C)[C@]12CC(=O)[C@H](C)[C@H]1C2 [thujone] | more strongly than DEET | – | –
2 | CCN(CC)C(=O)c1cccc(C)c1 [DEET, N,N-diethyl-3-methylbenzamide] | – | – | irritation [2]: act as an irritant; inhibition of acetylcholinesterase (acetylcholoinesterase): inhibit; protection time (Aedes aegypti [3]): 17.5 days
3 | CC1C(=O)CC2(C(C)C)CC12 (stereo not drawn) [beta-thujone] | – | 17.5 days | –
4 | CC(C)[C@]12CC(=O)[C@H](C)[C@H]1C2 [alpha-thujone] | – | 17.5 days | –
5 | CCC(C)OC(=O)N1CCCCC1CCO (stereo not shown) [Icaridin] | – | 17.5 days | irritation [2]: less irritating than DEET; effectiveness at repelling insects compared with DEET (insects): as effective as DEET
6 | C=CC(C)(O)CCC=C(C)C (stereo not shown) [linalool] | more strongly than DEET | 17.5 days | –
7 | CC12CCC(CC1)C(C)(C)O2 [Eucalyptol] | more strongly than DEET | 17.5 days | –

Source: patent publication US10292396B2, “Methods for assessing repellant quality of organic materials and methods and compositions for repelling arthropods” (priority 2011, dated 2019)
